Results on two compounds are retold here after PMC11178805, “Ligand-based design of [^18F]OXD-2314 for PET imaging in non-Alzheimer’s disease tauopathies” (Nature Communications, 2024).

Values joined by “and” are separate entries in the source; they are usually repeats but may differ in a detail not shown here. Identical values can stand only once.

Data set [1] deals with 3R/4R-tau aggregates in AD tissue (Homo sapiens, UniProt P10636). Nature of the data set: Competition binding vs [^3H]OXD-2115 in AD tissue homogenates. The following applies: vs [^3H]OXD-2115, AD tissue homogenates, n = 1. As for the experimental part: Fresh frozen, autopsy-confirmed human PD anterior cingulate cortex brain tissue blocks (1 cm^3) were obtained from Dr. Thomas Beach at Banner/Sun Health AZ with funding from the Michael J. Fox Foundation and contained frequent α-synuclein aggregates and no other detectable aggregated amyloid species. The frozen tissue blocks were prepared for the binding assays as previously described[47],[48], except that equal quantities of the homogenates of three AD brains (AD1-AD3, Table S1) were pooled, as were homogenates from three PSP brains (PSP1-PSP3), three CBD brains (CBD1-CBD3), three Pick’s brains (PiD1-PiD3), and 4 PD brains (PD1-PD4) in order to help minimize the inter-subject variability within the different neuropathological groups. Individual subcortical brain tissues from a PSP subject (PSP4) and a CBD subject (CBD4), as well as with the middle frontal cortex of a control subject, were prepared for the binding assays as previously described[47],[48].
The equilibrium inhibition constant (Ki) values of the unlabeled compounds were determined versus tritium-labeled radioligands using published methods.

In data set [2] the target is T1, norepinephrine transporter(h) (Homo sapiens, UniProt P23975).
T1 construct: purchased Eurofins, France (contract screening)
Put plainly: In vitro pharmacology binding screen (Eurofins): norepinephrine transporter. The following applies: read-out: inhibition of antagonist radioligand (protriptyline) binding to norepinephrine transporter(h). The protocol: OXD-2314 binding to CNS receptors was calculated as a percentage of inhibition of a receptor-specific radioligand. Enzyme inhibition was calculated as the percent inhibition of baseline enzyme activity where inhibition above 50% was considered significant. […] Norepinephrine transports are expressed in low concentration throughout the brain and its relative concentration are not affected by aging or neurodegeneration. 5-lipoxygenase may be overexpressed in aging brain and play some role in neurodegeneration, which could be necessary to further investigate in vivo[42]. Off-target binding to monoamine oxidase A and B (MAO-A and MAO-B) has been seen with some tau PET radiotracers[43],[44].

Data set [3] can be described thus: Radiometabolite analysis in rat plasma and brain homogenates. It counts as in vivo, rat (Sprague-Dawley). The following applies: for parent fraction of radioactivity in brain homogenates: rats. The protocol:
Radiometabolite analysis was performed ex vivo in plasma and brain homogenates from rats (n = 5, 3 female and 2 male) at 30 and 60 min after radiotracer injection (Figs. S11–S16). […] The parent fraction in plasma was 6% at 30 min and 5% at 60 min in the two male rats, respectively, and 32% at 30 min (n = 1) and 18% and 17% at 60 min (n = 2) in the female rats. Different rates of metabolism between male and female rats may have contributed to the differences in kinetics observed in the brain PET scans. No lipophilic radiometabolites were detected in plasma or brain. Parent [^18F]OXD-2314 accounted for 82 ± 7% (n = 2) and 80 ± 5% (n = 3) of the radioactivity in rat brain homogenates by 30 and 60 min post-injection of the radiotracer, respectively. The rats were not perfused with saline immediately prior to sacrifice, so that radiometabolites in blood were trapped in the brain and likely accounted for a portion of the polar radiometabolites found in brain, as cerebral blood volume in rats is approximately 4–5% of total brain volume.
Five adult Sprague-Dawley rats (3 F/2 M, 378 ± 51 g) were used in [^18F]OXD-2314 radiometabolite analysis. Following injection of 46.7 ± 3.3 MBq of the radiotracer through a tail-vein catheter, rats were sacrificed by decapitation 30 min (n = 2) and 60 min (n = 3) post-injection. Trunk blood was collected and centrifuged for 5 min at 2500 × g, and the plasma was collected. Brains were quickly extracted and homogenized with a BeadBug™ (Benchmark Scientific; Sayreville, NJ, USA) in 3.2 mL acetonitrile together with 1 μg of unlabeled parent compound, then 1.6 mL deionized H2O was added and mixed. The homogenate was centrifuged at 12,000 × g for 5 min, and the supernatant was collected. Parent radiotracer was separated from metabolites in plasma and brain extract by column-switching HPLC in a mobile phase of 40/60 CH3CN/100 mM NH4HCO2 (v/v) and analyzed with PowerChrom 2.6.15 (eDAQ).

A short description of data set [4]: Dynamic PET imaging with [^18F]OXD-2314 in rhesus macaque (baseline and displacement). It counts as in vivo. The protocol:
Dynamic PET imaging was performed in a rhesus macaque (macaca mulatta) monkey following the injection of [^18F]OXD-2314 at baseline (104.9 MBq, n = 1) and was repeated in a second [^18F]OXD-2314 study (115.8 MBq, n = 1) where a displacing dose of unlabeled OXD-2314 (0.5 mg/kg) was administered 10 min after [^18F]OXD-2314 injection to verify the absence of specific binding in NHP brain. Venous blood samples were drawn to characterize the metabolic fate of [^18F]OXD-2314 in the macaque. Dynamic [^18F]OXD-2314 PET imaging was also performed in a male (106.6 MBq, n = 1) and a female (115.8 MBq, n = 1) baboon (papio anubis), and venous blood samples were drawn in both baboons to characterize potential effects of sex on radiometabolism. Bilateral regions of interest were defined on 5–8 contiguous axial image planes for the lateral temporal cerebral cortex, cerebellum, striatum, and whole brain, which were used to sample dynamic [^18F]OXD-2314 PET images to determine the time-varying radioactivity concentration expressed in SUV units. [^18F]OXD-2314 readily entered macaque brain (whole brain peak ~2.2 SUV at ~2 min) and distributed uniformly throughout cortical and subcortical grey matter regions (Fig. 5A). […] Radiometabolite analysis of macaque venous blood identified only one, polar radiometabolite, which increased from 37% at 10 min to 77% at 90 min post-injection and was not likely brain penetrant (Figs. S19, S20).
NHP imaging studies in a male (13 kg) macaca mulata monkey and male (25.7 kg) and female (14.2 kg) papio anubis baboons were carried out in accordance with the guidelines set forth by the Institutional Animal Care and Use Committee at the University of Pittsburgh. Additional details regarding the maintenance of an active environmental enrichment program for the housed NHPs are described in Supplemental Information. Dynamic [^18F]OXD-2314 PET imaging of the brains of the isoflurane anesthetized NHPs was performed using a Siemens Biograph mCT Flow 64-4 R PET/CT scanner ([…], maximum intrinsic spatial resolution of 4.3 mm FWHM[53]. Following a low-dose CT scan for attenuation correction of PET emission data, [^18F]OXD-2314 was injected intravenously and emission data were acquired in list-mode for a period of 90 min. Emission data were binned into a dynamic series of 32 frames (20 sec-10 min) and reconstructed using filtered back projection with Fourier rebinning (FORE + FBP) with standard corrections applied that included attenuation, scatter, electronics dead-time, and physical decay.

Chain of 3R/4R-tau aggregates in AD tissue (P10636 623-695 limits assumed): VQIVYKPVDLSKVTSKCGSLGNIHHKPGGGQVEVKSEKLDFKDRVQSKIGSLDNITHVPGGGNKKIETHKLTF
T1 sequence (P23975 whole entry): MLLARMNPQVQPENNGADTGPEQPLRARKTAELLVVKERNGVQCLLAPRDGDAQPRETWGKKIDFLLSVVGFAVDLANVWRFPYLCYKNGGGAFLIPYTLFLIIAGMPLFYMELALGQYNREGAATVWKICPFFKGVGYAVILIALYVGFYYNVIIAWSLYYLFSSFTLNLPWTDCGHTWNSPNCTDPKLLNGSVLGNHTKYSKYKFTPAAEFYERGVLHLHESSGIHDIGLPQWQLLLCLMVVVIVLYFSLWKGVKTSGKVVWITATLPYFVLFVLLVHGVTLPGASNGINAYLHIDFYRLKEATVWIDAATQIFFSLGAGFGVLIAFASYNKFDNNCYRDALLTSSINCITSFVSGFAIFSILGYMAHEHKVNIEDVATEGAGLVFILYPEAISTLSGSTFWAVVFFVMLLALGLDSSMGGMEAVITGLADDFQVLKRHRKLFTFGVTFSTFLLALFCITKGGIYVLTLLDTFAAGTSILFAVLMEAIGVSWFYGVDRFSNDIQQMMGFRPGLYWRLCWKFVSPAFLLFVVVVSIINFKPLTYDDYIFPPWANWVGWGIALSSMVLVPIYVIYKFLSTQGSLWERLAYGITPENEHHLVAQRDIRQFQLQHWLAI

One may read the Ki as a measure of affinity in units of concentration, obtained from inhibition or displacement. High values mean a looser hold on the target, low ones a stronger hold on the target. Usually inhibition stands for how much of the control response was suppressed. `COC1CCCN(c2ccc(-c3cc4cc(O)ccc4[nH]3)c(F)n2)C1` (stereo not drawn) [OXD-2314, 2-(2-fluoro-6-(3-methoxypiperidin-1-yl)pyridin-3-yl)-1H-indol-5-ol] gave an inhibition constant Ki in data set [1] of 8.8 nM. Also, the inhibition at 10 µM in data set [2] worked out at 62.9%.
For `CO[C@H]1CCCN(c2ccc(-c3cc4cc(O)ccc4[nH]3)c([18F])n2)C1` [[^18F]OXD-2314], the “% Parent Brain” value in data set [3] (female rat, 30 min) was 77.11%; in data set [3] (female rats, 60 min), 81.01% and 83.78%; in data set [3] (male rat, 30 min) it was 87.09%; in data set [3] (male rat, 60 min), 74.16%. The “parent fraction in plasma” value is 32% and 32.43% in data set [3] (female rat, 30 min post-injection); 18% and 17% and 17.66% and 17.32% in data set [3] (female rats, 60 min post-injection); 6% and 5.79% in data set [3] (male rat, 30 min post-injection); 5% in data set [3] (male rat, 60 min post-injection). Also, the “parent fraction of radioactivity in brain homogenates” value in data set [3] (30 min post-injection, n = 2) came to 82 ± 7%; in data set [3] (60 min post-injection, n = 3), 80 ± 5%. The compound further gave an initial brain uptake in data set [4] (NHP) of over 2 SUV. In data set [4] (NHP), the “ratio initial maximum to late minimum brain radioactivity” value was ~ 4. Moreover, in data set [4] (macaque whole brain), the “2:90 min radioactivity concentration ratio” value is on record as 3.9. Also, in data set [4] (macaque, baseline), the “time of whole brain peak” value is ~ 2 min. Moreover, in data set [4] (macaque, baseline), the “whole brain clearance half-time” value is given as ~ 22 min. Also, the “whole brain peak uptake” value in data set [4] (macaque, baseline, n = 1) is on record as ~ 2.2 SUV.
